How the values were obtained:
SMN2-luciferase reporter = SMN2-luciferase reporter qHTS assay; type: cell-based, human; conditions: SMN2-luc reporter, FIG. 1
Method in brief: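 SMN2 exon-7 splicing firefly-luciferase reporter cell line, ~2000 cells/well in phenol-red-free DMEM with 10% serum, allowed to adhere 10–12 h, then exposed to compounds for 2 days at 37 C, 5% CO2. Seven-point five-fold dilution series (e.g. 50 μM to 3.2 nM), OneGlo luminescence read, curves fitted to Hill equation.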

SMN1-luciferase reporter = SMN1-luciferase reporter control cell line; type: cell-based, human; conditions: SMN1-luc reporter, FIG. 1
Source text: A cell-based quantitative high throughput screening (qHTS) assay is used to identify compounds able to increase SMN production. The assay uses a SMN2-luciferase reporter to determine if exon 7 of the SMN gene is expressed, which correlates with increased full-length SMN production from the SMN2 gene. As controls, a homologue SMN1-luciferase reporter cell line looks for variations in expression of the SMN1 gene and a cell line with just the luciferase reporter looks at the capacity of the compounds to inhibit luciferase. In addition, increments in SMN production by lead compounds were confirmed by Western-Blot analysis using SMA patient fibroblasts.
The SMN reporters used herein are modified from those previously described (M. L. Zhang, C. L. Lorson, E. J. Androphy and J. Zhou, An in vivo reporter system for measuring increased inclusion of exon 7 in SMN2 mRNA: potential therapy of SMA, Gene Ther 8 (2001), pp. 1532-1538.)
The sequence of the SMN1 reporter vector used herein is given in SEQ ID NO.:1, while that of the SMN2 reporter vector is given in SEQ ID NO.:2. […]

Compound: NC(=O)C1CCN(c2nc(-c3ccc(Br)cc3)cs2)CC1 [MLS000698854]
- expression of SMN2 / levels of the full length SMN2 gene (in words) (SMN2-luciferase reporter): increases the expression of SMN2
- expression of SMN1 (in words) (SMN1-luciferase reporter): does not affect the expression of SMN1

Reference: US20130096160A1, “ARYLTHIAZOLYL PIPERIDINES AND RELATED COMPOUNDS AS MODULATORS OF SURVIVAL MOTOR NEURON (SMN) PROTEIN PRODUCTION” (Secretary, Department of Health and Human Services, priority 2010, published 2013)
